Measured values as given in patent publication US9359358B2, “Cyclohexyl azetidine derivatives as JAK inhibitors” (Incyte Holdings Corporation, priority 2011, dated 2016).
Structures can show the parent of a compound that is named as a salt.

What was measured:
human JAK1 = molecular target: T1, human JAK1 (Homo sapiens, UniProt P23458); assay: In Vitro JAK Kinase Assay (HTRF, phosphorylation of a biotinylated peptide), JAK1; assay type: biochemical; settings: Table 4; catalytic domain a.a. 837-1142, assay of Example A
T1 construct: human JAK1 (a.a. 837-1142); His tag (N); made in house; host or cells: insect cells (baculovirus)
T1 sequence (P23458 849-1154): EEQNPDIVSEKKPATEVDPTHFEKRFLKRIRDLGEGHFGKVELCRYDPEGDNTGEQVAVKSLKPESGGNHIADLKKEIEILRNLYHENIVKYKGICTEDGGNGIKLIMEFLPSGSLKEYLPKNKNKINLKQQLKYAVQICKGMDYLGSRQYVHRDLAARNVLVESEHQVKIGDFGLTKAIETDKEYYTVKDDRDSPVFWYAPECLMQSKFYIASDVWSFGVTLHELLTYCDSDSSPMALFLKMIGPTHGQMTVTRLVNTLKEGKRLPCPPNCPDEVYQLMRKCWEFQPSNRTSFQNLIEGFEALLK
Protocol: (§1) The catalytic activity of JAK1, JAK2 or JAK3 was assayed by measuring the phosphorylation of a biotinylated peptide. The phosphorylated peptide was detected by homogenous time resolved fluorescence (HTRF). […] Reactions were carried out at room temperature for 1 hour and then stopped with 20 μL 45 mM EDTA, 300 nM SA-APC, 6 nM Eu-Py20 in assay buffer (Perkin Elmer, Boston, Mass.). Binding to the Europium labeled antibody took place for 40 minutes and HTRF signal was measured on a Fusion plate reader (Perkin Elmer, Boston, Mass.).

human JAK2 = molecular target: T2, human JAK2 (Homo sapiens, UniProt O60674); assay: In Vitro JAK Kinase Assay (HTRF, phosphorylation of a biotinylated peptide), JAK2; assay type: biochemical; settings: Table 4; assay of Example A
T2 construct: JAK2 (a.a. 828-1132); His tag (N); made in house; host or cells: insect cells (baculovirus)
T2 sequence (O60674 828-1132): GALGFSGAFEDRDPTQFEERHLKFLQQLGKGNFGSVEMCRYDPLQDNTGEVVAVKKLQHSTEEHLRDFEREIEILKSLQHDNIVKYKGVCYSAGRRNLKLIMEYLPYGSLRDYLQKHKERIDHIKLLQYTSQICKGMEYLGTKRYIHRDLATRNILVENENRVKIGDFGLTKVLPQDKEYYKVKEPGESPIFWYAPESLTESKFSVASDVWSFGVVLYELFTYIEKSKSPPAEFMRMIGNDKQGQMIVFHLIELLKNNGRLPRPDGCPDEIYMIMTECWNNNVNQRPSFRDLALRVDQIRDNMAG
Protocol: as §1

IC50 (human JAK1) | JAK2/JAK1 IC50 ratio (human JAK2) | SMILES
< 10 nM | ≧10 | N#CCC1(n2cc(-c3ncnc4[nH]ccc34)cn2)CN([C@H]2CC[C@@H](Oc3cc(CN4CC[C@H](O)C4)nc(C(F)(F)F)n3)CC2)C1 [Example 26, {1-(cis-4-{[6-{[(3S)-3-hydroxypyrrolidin-1-yl]methyl}-2-(trifluoromethyl)pyrimidin-4-yl]oxy}cyclohexyl)-3-[4-(7H-pyrrolo[2,3-d]pyrimidin-4-yl)-1H-pyrazol-1-yl]azetidin-3-yl}acetonitrile tris(trifluoroacetate) (salt)]
< 10 nM | ≧10 | N#CCC1(n2cc(-c3ncnc4[nH]ccc34)cn2)CN([C@H]2CC[C@@H](Oc3cc(CNC[C@@H]4CCCO4)nc(C(F)(F)F)n3)CC2)C1 [Example 27, [3-[4-(7H-pyrrolo[2,3-d]pyrimidin-4-yl)-1H-pyrazol-1-yl]-1-(cis-4-{[6-({[(2S)-tetrahydrofuran-2-ylmethyl]amino}methyl)-2-(trifluoromethyl)pyrimidin-4-yl]oxy}cyclohexyl)azetidin-3-yl]acetonitrile tris(trifluoroacetate)]
< 10 nM | ≧10 | N#CCC1(n2cc(-c3ncnc4[nH]ccc34)cn2)CN([C@H]2CC[C@@H](Oc3cc(CN4CCC[C@H]4CO)nc(C(F)(F)F)n3)CC2)C1 [Example 28, {1-(cis-4-{[6-{[(2R)-2-(hydroxymethyl)pyrrolidin-1-yl]methyl}-2-(trifluoromethyl)pyrimidin-4-yl]oxy}cyclohexyl)-3-[4-(7H-pyrrolo[2,3-d]pyrimidin-4-yl)-1H-pyrazol-1-yl]azetidin-3-yl}acetonitrile tris(trifluoroacetate) (salt)]

Further lines, the molecule ahead of its results:

SMILES | IC50 (human JAK1) | JAK2/JAK1 IC50 ratio (human JAK2)
COCCNCc1cc(O[C@H]2CC[C@@H](N3CC(CC#N)(n4cc(-c5ncnc6[nH]ccc56)cn4)C3)CC2)nc(C(F)(F)F)n1.O=C(O)C(F)(F)F.O=C(O)C(F)(F)F.O=C(O)C(F)(F)F [Example 22, {1-(cis-4-{[6-{[(2-methoxyethyl)amino]methyl}-2-(trifluoromethyl)pyrimidin-4-yl]oxy}cyclohexyl)-3-[4-(7H-pyrrolo[2,3-d]pyrimidin-4-yl)-1H-pyrazol-1-yl]azetidin-3-yl}acetonitrile tris(trifluoroacetate)] | < 10 nM | ≧10
N#CCC1(n2cc(-c3ncnc4[nH]ccc34)cn2)CN([C@H]2CC[C@@H](Oc3cc(CN4CCC4)nc(C(F)(F)F)n3)CC2)C1 [Example 23, {1-(cis-4-{[6-(azetidin-1-ylmethyl)-2-(trifluoromethyl)pyrimidin-4-yl]oxy}cyclohexyl)-3-[4-(7H-pyrrolo[2,3-d]pyrimidin-4-yl)-1H-pyrazol-1-yl]azetidin-3-yl}acetonitrile tris(trifluoroacetate)] | < 10 nM | ≧10
N#CCC1(n2cc(-c3ncnc4[nH]ccc34)cn2)CN([C@H]2CC[C@@H](Oc3cc(CN4CC(O)C4)nc(C(F)(F)F)n3)CC2)C1 [Example 24, {1-(cis-4-{[6-[(3-hydroxyazetidin-1-yl)methyl]-2-(trifluoromethyl)pyrimidin-4-yl]oxy}cyclohexyl)-3-[4-(7H-pyrrolo[2,3-d]pyrimidin-4-yl)-1H-pyrazol-1-yl]azetidin-3-yl}acetonitrile tris(trifluoroacetate) (salt)] | < 10 nM | ≧10
N#CCC1(n2cc(-c3ncnc4[nH]ccc34)cn2)CN([C@H]2CC[C@@H](Oc3cc(CN4CCCC4)nc(C(F)(F)F)n3)CC2)C1 [Example 25, {1-(cis-4-{[6-(pyrrolidin-1-ylmethyl)-2-(trifluoromethyl)pyrimidin-4-yl]oxy}cyclohexyl)-3-[4-(7H-pyrrolo[2,3-d]pyrimidin-4-yl)-1H-pyrazol-1-yl]azetidin-3-yl}acetonitrile tris(trifluoroacetate)] | < 10 nM | ≧10
